Results from patent US20140329854A1, “NOVEL HETEROCYCLIC COMPOUNDS USEFUL IN SIRTUIN BINDING AND MODULATION” (SMB Innovation, priority 2011, published 2014).
Values after ≈ are worked out from the molar mass of the structure shown. Read-outs that look alike come from different tables or passages of the source.

Key:
SIRT1 = biological target: T1, SIRT1 (Homo sapiens, UniProt Q96EB6); experiment: CISBIO HTRF SIRT1 assay of SIRT1 peptide deacetylation, modified by excluding NAD+; type: biochemical
T1 construct: purchased Cisbio Bioassays
T1 sequence (Q96EB6 1-747): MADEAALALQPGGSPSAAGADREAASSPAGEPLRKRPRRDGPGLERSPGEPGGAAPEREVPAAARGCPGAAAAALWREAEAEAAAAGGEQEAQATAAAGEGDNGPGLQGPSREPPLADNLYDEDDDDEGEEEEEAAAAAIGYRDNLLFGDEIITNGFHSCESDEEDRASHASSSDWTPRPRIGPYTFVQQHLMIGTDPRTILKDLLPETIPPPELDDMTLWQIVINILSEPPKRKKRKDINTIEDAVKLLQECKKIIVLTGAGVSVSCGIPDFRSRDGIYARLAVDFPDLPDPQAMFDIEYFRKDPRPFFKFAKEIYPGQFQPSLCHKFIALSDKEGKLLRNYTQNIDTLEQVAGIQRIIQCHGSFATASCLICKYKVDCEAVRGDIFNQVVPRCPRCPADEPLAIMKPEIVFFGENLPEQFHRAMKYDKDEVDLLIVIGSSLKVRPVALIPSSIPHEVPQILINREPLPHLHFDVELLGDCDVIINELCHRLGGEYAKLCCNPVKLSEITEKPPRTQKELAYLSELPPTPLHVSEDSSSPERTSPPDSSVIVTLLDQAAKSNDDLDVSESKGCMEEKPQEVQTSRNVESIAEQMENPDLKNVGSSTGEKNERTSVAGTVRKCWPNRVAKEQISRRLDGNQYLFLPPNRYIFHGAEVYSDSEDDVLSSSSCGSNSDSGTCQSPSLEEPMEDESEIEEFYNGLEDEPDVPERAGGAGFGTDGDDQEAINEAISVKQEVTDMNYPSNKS
Protocol: Generally, the CISBIO HTRF® fluorescence enzyme titration assay (Cisbio Bioassays, Cisbio, 135 South Road, Bedford, Mass. 01730, USA) has provided information on inhibition and/or activation of SIRT1 deacetylation of a substrate peptide d2 containing a single acetylated lysine residue and a fluorescence probe/quencher. IC50 and AC50 values have been obtained. The assay was performed in microtiter wells and involved an enzymatic step, wherein 2 μL of the substrate peptide (6 nM) is incubated with 2 μL of SIRT1 enzyme (2.5 ng) and 2 μL of compound solution in DMSO and water. Reaction with anti-acetyl cryptate produces a FRET signal giving maximum signal when no SIRT1 reaction can be detected. The detection step involves quantification of the deacetylation process using an anti-acetyl MAb labeled with Eu^3+ cryptate. The assay was modified by excluding the NAD+ cofactor and using nicotinamide as inhibition control and the compound SRT1720 as activation control. SRT 1720 is described as a SIRT1 activating compound in Pillarisetti, S. (2008).
Protocol for inhibition/activation assay:
After adding all enzymatic step ingredients the mixture is incubated at room temperature at 30 to 60 min. Then the detection reactant is added and incubated at room temperature for 5 hours and on to produce a signal. The fluorescence readout is given as percentage of signal produced with no enzyme reaction.
The cryptate is excited at 337 nm and the fluorescence is measured at 590 nm (cryptate emission wavelength) and 665 nm (d2 emission wavelength). A ratio is calculated (665/590 nm) for each well.
The figures show percentage fluorescence as a function of Log C (log of compound concentration in μM).

human hepatocytes = experiment: Metabolic stability in human hepatocytes; type: in vitro ADME; conditions: for % Qh (human): CLh as % of hepatic blood flow; for % Qh (human) / hu CLh: human Qh = 21 mL/min/kg; for hu CLh: hepatic clearance from CLint by well-stirred equation
Protocol: (§1) Stability of the six compounds in the presence of a drug metabolizing system such as human and rat hepatocytes was measured. Data were reported from the CRO in the format of hepatic intrinsic clearance (CLint) in mL/min/kg. These CLint data were converted using the well-stirred equation
(§2) to a whole body clearance (CLh, hepatic clearance), which is more directly physiologically interpreted (Qh, hepatic blood flow rate, mL/min/kg).

[1] = Metabolic stability in human hepatocytes; type: in vitro ADME; conditions: human hepatocytes, hepatic intrinsic clearance; read-out: hu CLint
Protocol: as §1, §2

[2] = tested on: human and rat hepatocytes; experiment: Stability in cryopreserved hepatocytes (FIG. 7), verbal summary; type: in vitro ADME; conditions: 90 minutes
Protocol: as §1

rat hepatocytes = experiment: Metabolic stability in rat hepatocytes; type: in vitro ADME; conditions: for % Qh (rat): CLh as % of hepatic blood flow; for % Qh (rat) / rat CLh: rat Qh = 55 mL/min/kg; for rat CLh: hepatic clearance from CLint by well-stirred equation
Protocol: as §1, §2

[3] = Metabolic stability in rat hepatocytes; type: in vitro ADME; conditions: rat hepatocytes, hepatic intrinsic clearance
Protocol: as §1, §2

[4] = Kinetic aqueous solubility; type: physicochemical; conditions: phosphate buffer, pH 7.4, aqueous buffer, kinetic from dmso stock; read-out: Measured kinetic solubility
[5] = tested on: CYP1A2, CYP2C9, CYP2C19, CYP2D6, CYP3A4; experiment: CYP inhibition in human liver microsomes
[6] = Measured partition coefficients (MlogD7.4, logP11); type: physicochemical
Protocol: Physical properties tPSA and ClogP (calculated lipophilicity octanol/water) were calculated using ChemDraw. Additionally, M log D7.4 (measured partition coefficient at pH 7.4) and log P11 (measured partition coefficient at pH 11) were measured, and all data are shown in Table 7.

[7] = Solubility in DMSO stock solution; conditions: solubility in DMSO before further dilution with water to 1% DMSO
MDCK-MDR1 cells = tested on: MDCK-MDR1 cells
Source text: MDR1 is the nomenclature for the major efflux transporter P-glycoprotein (P-gp), which is expressed at important anatomical barriers such as blood-brain, small intestine, and tumor cells. The MDCK-MDR model is a polarized cell model over expressing P-gp (i.e. P-gp is expressed on the Apical, or gut lumen, side of the cell) that is capable of actively effluxing small molecule substrates in the B to A direction. […] The compounds were run bidirectionally (Compound added to apical side and flux measured of compound appearing on the basolateral, or blood, side; compound added on basolateral side and flux of compound to apical side measured).

[8] = tested on: CYP1A2, 2C9, 2C19, 2D6, and 3A4; conditions: microsomes
[9] = measured partition coefficient at pH 7.4

Compound	% Qh (human) (human hepatocytes)	hu CLh (human hepatocytes)	Clearance in hepatocytes (in words) [2]	Stability in hepatocytes (in words) [2]	% Qh (rat) (rat hepatocytes)	rat CLh (rat hepatocytes)	Concentration of compound in DMSO stock solution [7]	Cell permeability (in words) (MDCK-MDR1 cells)	P-gp mediated efflux (in words) (MDCK-MDR1 cells)	other results
NC(=O)c1ccc(C(=O)Nc2ccc(O)cc2O)nc1 [Compound 3, 2-N(2,4-dihydroxyphenyl)pyridine-2,5-dicarboxamide]	79.8%	16.8 mL/min/kg	relatively low clearance	good stability	49.1%	27.0 mL/min/kg	20000 µM	moderate cell permeability	no P-gp mediated efflux	AC50 (SIRT1; average AC50 values, n = 6, read-out: AC50): 10 µM; CLint scaled [1]: 83 mL/min/kg; CLint scaled [3]: 53 mL/min/kg; solubility kinetic [4]: 14 to 55 µg/mL (≈ 51.2 to 201 µM); IC50 [5]: > 5 µM; logD [6, 9]: 0.8; logP ([6]; measured partition coefficient at pH 11, read-out: MlogP11): 1
NC(=O)c1ccc(C(=O)Nc2ccc(O)c3ccccc23)cn1 [Compound 11, 5-N(4-hydroxy-1-naphthyl)pyridine-2,5-dicarboxamide]	60.4%	12.7 mL/min/kg	relatively low clearance	good stability	70.7%	38.9 mL/min/kg	20000 µM	moderate cell permeability	no P-gp mediated efflux	AC50 (SIRT1; SIRT1 activation, no NAD+ cofactor, average n = 3, read-out: AC50 in μM, average, n = 3): 114 µM; AC50 (SIRT1; SIRT1 activation, no NAD+ cofactor, single experiment of FIGS. 1-4, read-out: AC50 in μM, n = 1): 3.3 µM; Modulation of SIRT1 deacetylating activity (in words) (SIRT1; dose response, FIGS. 1-5): clear activation; hu CLint (human hepatocytes; human hepatocytes, hepatic intrinsic clearance): 32 mL/min/kg; rat CLint (rat hepatocytes; rat hepatocytes, hepatic intrinsic clearance): 133 mL/min/kg; IC50 [8]: > 5 µM; MlogD7.4 [6, 9]: 1.6
